This note sets out measurements from US10316056B2, “Chemical compounds and use thereof for improving muscular quality” (BIOPHYTIS, priority 2014, dated 2019).

The test concerns myostatin gene expression in C2C12 cells. Kind of test: Inhibition of myostatin expression in C2C12 cells (qPCR). The class given is cell-based. The note with it: Mus musculus, percentage myostatin gene expression in cells in contact with the compounds related to control cells, C2C12, 6 h. On the procedure: After several experiments in which the C2C12 cells differentiated into myotubes were incubated in the presence of IGF-1 or 20E for 2 h 30 or 6 h, two screening tests were developed. Thus, the phosphorylation of the S6 protein kinase and the expression of the myostatin gene were studied in order to determine their modulation by a growth hormone or an ecdysone and to characterize these modulations from a statistical point of view. The C2C12 myoblast cells (ATCC CRL-1772) are seeded into 24-well plates at a density of 30 000 cells per well and cultured in a DMEM medium containing glucose in a proportion of 4.5 g/l and supplemented with fetal calf serum (10%) and with antibiotics (penicillin and streptomycin). Forty-eight hours later, the myoblasts are induced to differentiate by partial serum depletion (2% instead of 10%) for 5 days. The cells are then placed in a medium which is glucose-depleted (DMEM containing 1 g/l of glucose) and serum-free in the presence of the test molecules or of the references (100 ng/ml IGF-1 or 10 μ[…]) for 6 h. At the end of the experiment, the messenger RNAs (mRNAs) are extracted using the conventional methodology based on phenol and chloroform. Briefly, the cells are lysed in a Trizol solution (Sigma T9424) containing a strong acid and phenol. The mRNAs are separated from the proteins by addition of chloroform and then centrifugation. They are then precipitated from isopropanol and then suspended at a concentration of 1 μg/μl in an […] ultrapure water. 1 μg of mRNA is then converted by reverse transcription into complementary DNA by the AMV enzyme in the presence of a primer and of a mixture of nucleotides according to the protocol given by the supplier (Applied Biosystems 4368814). […] The qPCRs are carried out on a 7900HT Fast real-Time PCR detection system (Applied Biosystems). The programming conditions are standard and consist of 1 cycle at 95° C. for 15 min, followed by 40 cycles at 95° C. for 15 s and at 60° C. for 1 min and the program ends with a melt curve step between 60° C. and 95° C. […] Fluorescent probes bind to the double-stranded DNA and are fluorescent only once bound to the DNA. A fluorescence threshold is established by the machine's program. When the amount of DNA allows the fluorescent probe to exceed this threshold, a PCR cycle number, called “Ct” for “Cycle Threshold”, is obtained. It is this value which forms the basis of the calculations to quantify the DNA relatively. A ratio R is established between the amount of starting DNA of a sample and that of a control, which has not undergone treatment (i.e. […] R=2^-ΔΔCt).
In general terms: In qPCR the cycle at which signal appears reflects the starting amount.

On to `C/C(=N/OCCN(C)C)[C@H]1CC[C@@]2(O)C3=CC(=O)[C@@H]4C[C@@H](O)[C@@H](O)C[C@]4(C)C3CC[C@]12C` (stereo partly drawn) [Compound 35, (2S,3R,5R,10R,13R,14S,17S)-17-(N-(2-dimethylaminoethoxy)-C-methylcarbonimidoyl)-2,3,14-trihydroxy-10,13-dimethyl-2,3,4,5,9,11,12,15,16,17-decahydro-1H-cyclopenta[a]phenanthren-6-one], for which the mrna remaining at 10 µM lay within 71 to 85%.

`CCO/N=C(/C)[C@H]1CC[C@@]2(O)C3=CC(=O)[C@@H]4C[C@@H](O)[C@@H](O)C[C@]4(C)C3CC[C@]12C` (stereo partly drawn) [Compound 23, (2S,3R,5R,10R,13R,14S,17S)-17-(N-ethoxy-C-methylcarbonimidoyl)-2,3,14-trihydroxy-10,13-dimethyl-2,3,4,5,9,11,12,15,16,17-decahydro-1H-cyclopenta[a]phenanthren-6-one] displayed a mrna remaining at 10 µM of 71 to 85%. Compound `COC(CN(C)CC(=O)[C@H]1CC[C@@]2(O)C3=CC(=O)[C@@H]4C[C@@H](O)[C@@H](O)C[C@]4(C)C3CC[C@]12C)OC` (stereo partly drawn) [Compound 85, (2S,3R,5R,10R,13R,14S,17S)-17-[2-(2,2-dimethoxyethyl(methyl)amino)acetyl]-2,3,14-trihydroxy-10,13-dimethyl-2,3,4,5,9,11,12,15,16,17-decahydro-1H-cyclopenta[a]phenanthren-6-one] yielded a mrna remaining at 10 µM of 71 to 85%. Compound `COCCN(C(=O)N1CCOCC1)C(C)[C@H]1CC[C@@]2(O)C3=CC(=O)[C@@H]4C[C@@H](O)[C@@H](O)C[C@]4(C)C3CC[C@]12C` (stereo partly drawn) [Compound 57, N-(2-methoxyethyl)-N-[1-[(2S,3R,5R,10R,13R,14S,17S)-2,3,14-trihydroxy-10,13-dimethyl-6-oxo-2,3,4,5,9,11,12,15,16,17-decahydro-1H-cyclopenta[a]phenanthren-17-yl]ethyl]morpholine-4-carboxamide] gave a mrna remaining at 10 µM of 71 to 85%. Regarding `COCCN(C(=O)c1cccs1)C(C)[C@H]1CC[C@@]2(O)C3=CC(=O)[C@@H]4C[C@@H](O)[C@@H](O)C[C@]4(C)C3CC[C@]12C` (stereo partly drawn) [Compound 53, N-(2-methoxyethyl)-N-[1-[(2S,3R,5R,10R,13R,14S,17S)-2,3,14-trihydroxy-10,13-dimethyl-6-oxo-2,3,4,5,9,11,12,15,16,17-decahydro-1H-cyclopenta[a]phenanthren-17-yl]ethyl]thiophene-2-carboxamide], the mrna remaining at 10 µM was under 70%.

On to `C=CC(=O)N(CC1CCCO1)C(C)[C@H]1CC[C@@]2(O)C3=CC(=O)[C@@H]4C[C@@H](O)[C@@H](O)C[C@]4(C)C3CC[C@]12C` (stereo partly drawn) [Compound 48, N-(tetrahydrofuran-2-ylmethyl)-N-[1-[(2S,3R,5R,10R,13R,14S,17S)-2,3,14-trihydroxy-10,13-dimethyl-6-oxo-2,3,4,5,9,11,12,15,16,17-decahydro-1H-cyclopenta[a]phenanthren-17-yl]ethyl]prop-2-enamide], for which the mrna remaining at 10 µM is 71 to 85%. As for `C[C@]12C[C@H](O)[C@H](O)C[C@H]1C(=O)C=C1C2CC[C@]2(C)[C@@H](C(O)CN3CCC(CCO)CC3)CC[C@@]12O` (stereo partly drawn) [Compound 99, (2S,3R,5R,10R,13R,14S,17S)-2,3,14-trihydroxy-17-[1-hydroxy-2-[4-(2-hydroxyethyl)-1-piperidyl]ethyl]-10,13-dimethyl-2,3,4,5,9,11,12,15,16,17-decahydro-1H-cyclopenta[a]phenanthren-6-one], the mrna remaining at 10 µM was under 70%. In turn, `COCCON=C(C)[C@H]1CC[C@@]2(O)C3=C/C(=N\OC)[C@@H]4C[C@@H](O)[C@@H](O)C[C@]4(C)C3CC[C@]12C` (stereo partly drawn) [Compound 19, (2S,3R,5R,6E,10R,13R,14S,17S)-17-(N-(2-methoxyethoxy)-C-methylcarbonimidoyl)-6-methoxyimino-10,13-dimethyl-2,3,4,5,9,11,12,15,16,17-decahydro-1H-cyclopenta[a]phenanthrene-2,3,14-triol] returned a mrna remaining at 10 µM of 71 to 85%.

`CC(C)=CCON=C(C)[C@H]1CC[C@@]2(O)C3=C/C(=N\O)[C@@H]4C[C@@H](O)[C@@H](O)C[C@]4(C)C3CC[C@]12C` (stereo partly drawn) [Compound 21, (2S,3R,5R,10R,13R,14S,17S)-2,3,14-trihydroxy-10,13-dimethyl-17-(C-methyl-N-(3-methylbut-2-enoxy)carbonimidoyl)-2,3,4,5,9,11,12,15,16,17-decahydro-1H-cyclopenta[a]phenanthren-6-one oxime] registered a mrna remaining at 10 µM of under 70%. The result for `CO/N=C1\C=C2C(CC[C@]3(C)[C@@H](/C(CN4CCOCC4)=N\OC)CC[C@@]23O)[C@@]2(C)C[C@H](O)[C@H](O)C[C@@H]12` (stereo partly drawn) [Compound 101, (2S,3R,5R,6E,10R,13R,14S,17S)-6-methoxyimino-17-(N-methoxy-C-(morpholinomethyl)carbonimidoyl)-10,13-dimethyl-2,3,4,5,9,11,12,15,16,17-decahydro-1H-cyclopenta[a]phenanthrene-2,3,14-triol] reads under 70%; that for `CC(C)=CCO/N=C(/C)[C@H]1CC[C@@]2(O)C3=CC(=O)[C@@H]4C[C@@H](O)[C@@H](O)C[C@]4(C)C3CC[C@]12C` (stereo partly drawn) [Compound 30, (2S,3R,5R,10R,13R,14S,17S)-2,3,14-trihydroxy-10,13-dimethyl-17-(C-methyl-N-(3-methylbut-2-enoxy)carbonimidoyl)-2,3,4,5,9,11,12,15,16,17-decahydro-1H-cyclopenta[a]phenanthren-6-one], 71 to 85%. Compound `CC([C@H]1CC[C@@]2(O)C3=CC(=O)[C@@H]4C[C@@H](O)[C@@H](O)C[C@]4(C)C3CC[C@]12C)N(CC(F)F)C(=O)C1CC1` (stereo partly drawn) [Compound 68, N-(2,2-difluoroethyl)-N-[1-[(2S,3R,5R,10R,13R,14S,17S)-2,3,14-trihydroxy-10,13-dimethyl-6-oxo-2,3,4,5,9,11,12,15,16,17-decahydro-1H-cyclopenta[a]phenanthren-17-yl]ethyl]cyclopropanecarboxamide] showed a mrna remaining at 10 µM of under 70%. The result for `COCC(=O)N(C1CC1)C(C)[C@H]1CC[C@@]2(O)C3=CC(=O)[C@@H]4C[C@@H](O)[C@@H](O)C[C@]4(C)C3CC[C@]12C` (stereo partly drawn) [Compound 54, N-cyclopropyl-2-methoxy-N-[1-[(2S,3R,5R,10R,13R,14S,17S)-2,3,14-trihydroxy-10,13-dimethyl-6-oxo-2,3,4,5,9,11,12,15,16,17-decahydro-1H-cyclopenta[a]phenanthren-17-yl]ethyl]acetacetamide] reads under 70%; that for `COCCO/N=C(/C)[C@H]1CC[C@@]2(O)C3=CC(=O)[C@@H]4C[C@@H](O)[C@@H](O)C[C@]4(C)C3CC[C@]12C` (stereo partly drawn) [Compound 29, (2S,3R,5R,10R,13R,14S,17S)-2,3,14-trihydroxy-17-(N-(2-methoxyethoxy)-C-methylcarbonimidoyl)-10,13-dimethyl-2,3,4,5,9,11,12,15,16,17-decahydro-1H-cyclopenta[a]phenanthren-6-one], under 70%; that for `C/C(=N/OCCOc1ccccc1)[C@H]1CC[C@@]2(O)C3=CC(=O)[C@@H]4C[C@@H](O)[C@@H](O)C[C@]4(C)C3CC[C@]12C` (stereo partly drawn) [Compound 27, (2S,3R,5R,10R,13R,14S,17S)-2,3,14-trihydroxy-10,13-dimethyl-17-(C-methyl-N-(2-phenoxyethoxy)carbonimidoyl)-2,3,4,5,9,11,12,15,16,17-decahydro-1H-cyclopenta[a]phenanthren-6-one], under 70%. `COC(CN(C(=O)c1ccco1)C(C)[C@H]1CC[C@@]2(O)C3=CC(=O)[C@@H]4C[C@@H](O)[C@@H](O)C[C@]4(C)C3CC[C@]12C)OC` (stereo partly drawn) [Compound 60, N-(2,2-dimethoxyethyl)-N-[1-[(2S,3R,5R,10R,13R,14S,17S)-2,3,14-trihydroxy-10,13-dimethyl-6-oxo-2,3,4,5,9,11,12,15,16,17-decahydro-1H-cyclopenta[a]phenanthren-17-yl]ethyl]furan-2-carboxamide] gave a mrna remaining at 10 µM of 71 to 85%. Take `COC(CN(C(=O)C1CC1)C(C)[C@H]1CC[C@@]2(O)C3=CC(=O)[C@@H]4C[C@@H](O)[C@@H](O)C[C@]4(C)C3CC[C@]12C)OC` (stereo partly drawn) [Compound 65, N-(2,2-dimethoxyethyl)-N-[1-[(2S,3R,5R,10R,13R,14S,17S)-2,3,14-trihydroxy-10,13-dimethyl-6-oxo-2,3,4,5,9,11,12,15,16,17-decahydro-1H-cyclopenta[a]phenanthren-17-yl]ethyl]cyclopropanecarboxamide]: the mrna remaining at 10 µM is under 70%.
